{"source": "patent US20260097083A1", "about": "“METHOD FOR PRODUCING PANCREATIC ENDODERM CELLS” (Kyoto University, priority 2022, published 2026)", "key": {"[1]": {"tested_on": "pancreatic endoderm cells derived from ES cells (KhES-3 line)", "assay": "Expansion culture of pancreatic endoderm cells derived from ES cells", "format": "cell-based, human", "description": "PDX1^+/NKX6.1^+ pancreatic endoderm cells were produced from iPS cells (585A1 line) or ES cells (KhES-3 line) on a 6-well plate using the method by Toyoda et al. (Toyoda T, et al. Stem Cell Reports 2017). Briefly, the undifferentiated cells above were seeded at 1×10^6/well on a 6-well plate coated with iMatrix-511 silk. The cells were cultured in RPMI to which an S1 culture medium (1×B-27 Supplement, 100 U/ml penicillin/streptomycin, 100 ng/ml activin A, and CHIR99021 (Day 1: 3 μM, Days 2 and 3: 1 μM, and Day 4: 0 μM)) had been added for 4 days, in an S2 culture medium (improved MEM to which 0.5×B-27 Supplement, 100 U/ml penicillin/streptomycin, and 50 ng/ml KGF/FGF7 had been added) for 5 days, and in an S3 culture medium (improved MEM to which 0.5×B-27 Supplement, 100 U/ml penicillin/streptomycin, 50 ng/ml KGF/FGF7, 0.2 μM LDN-193189, 0.1 μM SANT-1, and 10 nM TTNPB had been added) for 2 days. The cells were detached from the 6-well plate using trypsin, and were reseeded on a 6-well plate coated with iMatrix-511 silk at 1.5×10^6/well using the S3 culture medium again. […] (5) The cells were suspended in improved MEM (containing 10 μM Y-27632, 0.5×B-27 Supplement, and 100 U/ml penicillin/streptomycin), and were counted. […]"}, "[2]": {"tested_on": "NKX6.1-positive pancreatic endoderm cells derived from human iPS cells", "assay": "Screening of senescence-related reagents", "format": "cell-based", "description": "FIG. 2-A A schematic diagram illustrating senescence-related reagent screening. […] After the elapse of one week, the cells were counted under a fluorescence microscope. Cells were differentiated to a pancreatic endoderm cell level using a stepwise differentiation-inducing method, and were then re-seeded on a 24-well plate at 2×10^5/well. The following culture media were added to these cultured cells, and the cells were cultured for 1 week. […] After fixed using 4% PFA, the cells were subjected to β-gal staining and NKX6.1 antibody immunostaining, and fluorescently stained images were acquired using BZ-800 (Keyence). The number of NKX6.1-positive cells, the NKX6.1-positive ratio, and the β-gal-positive ratio were calculated using the BZ-[…]/Macro Cell Count function of that microscope. FIGS. 2-A and 3-A show the outline of this procedure. A reagent enabling proliferation of pancreatic endoderm cells derived from human iPS cells was searched for in the senescence-related reagents. […] Then, (1) the number of NKX6.1-positive cells, or (2) the ratio of NKX6.1-positive cells and the ratio of β gal-positive cells were measured after the culture. FIGS. 2-B to 2-D show the results."}, "[3]": {"tested_on": "pancreatic endoderm cells after expansion culture", "assay": "Induction of differentiation into β-like cells after expansion culture", "format": "cell-based", "description": "After the expansion culture, the differentiation into β-like cells was induced using the method by Kimura et al. (Non Patent Literature 1) with a portion thereof being modified. Briefly, pancreatic endoderm cells were detached from a 6-well plate using trypsin, and were then suspended in the S4 culture medium at 3×10^5 cells/ml. The cells were seeded on a V-bottomed 96-well plate at 3×10^4 cells/100 μl/well. […] The induction of differentiation of pancreatic endoderm cells that had been repeatedly passaged 5 times using the expansion culture method with “Y-27632+DMSO” or “Y-27632+ALK5i+RA” into β-like cells was promoted. Then, the efficiency of induction into β-like cells was compared with that of a cell cluster obtained by inducing pancreatic endoderm cells that had not been passaged into B-like cells."}}, "data": [{"smiles": "C[C@@H](N)[C@H]1CC[C@H](C(=O)Nc2ccncc2)CC1", "note": "[Y-27632]", "values": [{"measurement": "expansion culture of the pancreatic endoderm cells", "setting": "[1]; FIG. 4-H", "value": "similarly possible"}, {"measurement": "cell (nuclear) shape", "setting": "[1]; Y-27632 10 μM, passaged 5 times (5 weeks), FIGS. 5-B and 5-C", "value": "changed their shape (elongated elliptical shape)"}, {"measurement": "ratio of the pancreatic endoderm cells (NKX6.1-positive)", "setting": "[2]; 50 μM, 1 week, FIG. 2-C", "value": "most effective"}, {"measurement": "ratio of β gal-positive cells (senescent cells)", "setting": "[2]; 1 week, FIG. 2-D", "value": "exhibited an effect of reducing the ratio of β gal-positive cells"}, {"measurement": "concentration most suitable for the proliferation", "setting": "[2]; FIG. 2-B", "value": 50, "unit": "µM"}, {"measurement": "number of NKX6.1-positive cells (pancreatic endoderm cells)", "setting": "[2]; culture for 1 week, 24-well plate, FIG. 2-B", "value": "significantly increased"}, {"measurement": "potential to differentiate into β-like cells", "setting": "[3]; after 2 rounds of expansion culture with Y-27632 50 μM, FIG. 4-G", "value": "had a potential to differentiate"}, {"measurement": "efficiency of induction to β-like cells on repeated expansion culture", "setting": "[3]; culture medium for expansion culture with Y-27632", "value": "tended to gradually decrease"}]}]}
